Laboratory results published in US9790253B2, “OSW-1 analogs and conjugates, and uses thereof” (priority 2011, dated 2017).

Tests used:
HCT-116 cells = test: Growth inhibition with 25-OHC co-administration; format: cell-based, human; details: for effect of 25-OHC co-administration on the antiproliferative activity: 10 μM 25-OHC for 1 and 2
Method: 25-OHC (11) is a high-affinity ligand of OSBP1 and ORP4L that is not cytotoxic at concentrations up to 10 μM. Example 1 established that the ORPphilins compete with 25-OHC for binding to OSBP1 and ORP4L (FIG. 2D,E). Therefore, if OSBP1 and ORP4L mediate the biological activities of these compounds, co-administration of sub-lethal doses of 25-OHC with the ORPphilins should inhibit binding of the ORPphilins to OSBP1 and ORP4L, thereby desensitizing cells to the cytotoxic effects of the ORPphilins.

ORP4L-myc-his = target: T1, ORP4L-myc-his (Homo sapiens, UniProt Q969R2); test: [3H]-25-hydroxycholesterol charcoal-dextran binding assay with ORP4L-myc-his; details: for Ki: read-out: [^3H]-25-OHC K1 (nM) ORP4L-myc-his, competition with 20 nM [3H]-25-OHC, HEK-293T S100 lysate, 4° C., 16 h; for fold lower affinity for ORP4L than for OSBP1: ratio of Ki values
T1 sequence (Q969R2 1-916): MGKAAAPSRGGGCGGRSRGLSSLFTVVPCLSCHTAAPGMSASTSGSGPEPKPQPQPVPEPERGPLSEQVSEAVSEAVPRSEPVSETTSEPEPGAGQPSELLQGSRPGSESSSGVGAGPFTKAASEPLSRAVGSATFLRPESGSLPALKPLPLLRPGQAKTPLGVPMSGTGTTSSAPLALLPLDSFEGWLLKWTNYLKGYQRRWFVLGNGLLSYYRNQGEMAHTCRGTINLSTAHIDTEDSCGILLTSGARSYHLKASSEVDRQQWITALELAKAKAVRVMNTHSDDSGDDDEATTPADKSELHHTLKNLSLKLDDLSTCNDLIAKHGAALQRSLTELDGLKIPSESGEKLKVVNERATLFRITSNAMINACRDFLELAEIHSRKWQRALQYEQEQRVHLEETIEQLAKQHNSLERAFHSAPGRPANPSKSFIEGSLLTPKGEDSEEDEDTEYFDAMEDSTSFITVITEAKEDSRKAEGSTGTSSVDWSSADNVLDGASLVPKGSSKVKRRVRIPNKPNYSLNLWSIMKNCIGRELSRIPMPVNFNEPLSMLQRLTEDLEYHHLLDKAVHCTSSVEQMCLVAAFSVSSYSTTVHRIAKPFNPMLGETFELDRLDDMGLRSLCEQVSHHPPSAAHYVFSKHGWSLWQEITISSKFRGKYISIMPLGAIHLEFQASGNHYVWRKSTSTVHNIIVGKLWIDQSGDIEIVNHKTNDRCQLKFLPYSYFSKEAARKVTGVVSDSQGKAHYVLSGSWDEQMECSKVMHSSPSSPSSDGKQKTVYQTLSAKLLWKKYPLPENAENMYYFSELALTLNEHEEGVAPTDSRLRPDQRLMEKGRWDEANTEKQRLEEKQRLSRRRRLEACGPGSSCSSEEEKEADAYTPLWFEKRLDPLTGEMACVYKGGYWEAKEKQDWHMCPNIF
Method: [^3H]-25-Hydroxycholesterol charcoal-dextran binding assay. […] These vectors were transfected into HEK-293T cells using Lipofectamine™2000 (Invitrogen), and 48 h after transfection, on-plate lysis of the transfected cells with the M-Per®/HALT™ with EDTA (ThermoScientific) reagent was performed, followed by ultracentrifugation at 100,000 g. The S100 lysate was diluted to 0.2 mg/mL, aliquoted and stored at −80° C. until use. The HEK-293T OSBP1-, ORP4L- or lacZ-myc-his lysate was incubated with [^3H]-25-hydroxycholesterol at 4° C. for 16 h in 96-well plates. After incubation, charcoal/dextran (C/D) was added to the wells for 30 min of shaking at RT, followed by centrifugation for 15 min at 1900 g to pellet the C/D. The C/D-cleared lysate was added to MicroScint™-20 (PerkinElmer) scintillation fluid, and the remaining protein-bound radiolabel was quantified using a TopCount™ scintillation counter. [^3H]-25-hydroxycholesterol binding curves and competition curves were repeated at least three times.
Lysates were thawed on ice, with brief periods of hand warming. Both the ^3H-25-OHC direct binding assays and the ^3H-25-OHC competition binding assays were set up similarly, with a large stock of binding assay lysate being prepared, then 73.5 μL of the binding assay mixture dispensed using a multi-channel pipettor into “V”-shaped 96-well plates. For the ^3H-25-OHC direct binding assay, 1.5 μL of ^3H-25-OHC and ^3H-25-OHC/40×25-OHC added to the wells in dilutions in 100% ethanol. For the ^3H-25-OHC competition binding assays, ^3H-25-OHC was added to the large stock of binding assay lysate to a final concentration of 20 nM. This ^3H-25-OHC-containing binding lysate was then dispensed using a multi-channel pipettor into the 96-well plates. Then, 1.5 μL of a serial dilution of the inhibitors in either 100% ethanol (25-OHC) or DMSO (the ORPphilins) was added to each well.
The binding lysate used in each well of the 96-well plate consisted of 60 μL of 0.2 mg/mL S100 lysate, 7.5 μL 20% PVA, and 5.6 μL 2M KCl. For ^3H-25-OHC binding curve experiments, 0.4 μL of buffer was then added (total volume per well: 73.5 μL). For the ^3H-25-OHC inhibition competition assays, 0.11 μL of 13.2 μM ^3H-25-OHC and 0.29 μL binding buffer was added for each well (total volume per well: 73.5 μL).
Binding assays were incubated, standing, for 16 h at 4° C. Then 30 μL of the rt C/D solution was multichannel pipetted into new “V’ shaped 96-well plates, and 60 μL of the binding lysate mixture was then added. The plates were briefly, lightly vortexed (˜10 sec), 10 and then rocked at 250 rpm for 30 min at rt. The plates were then centrifuged at 1900 g for 15 min at 4° C. in Microplate Carriers (Sorvall cat. #75006449S) in a Sorvall Legend RT centrifuge. Carefully so as to not disturb the C/D pellet, 30 μL of the supernatant was transferred to 170 μL of Microscint-20 in the OptiPlates. The plates were sealed with the TopSealA-Films, and vigorously vortexed (max speed, >1 min). ^3H-25-OHC detection in the wells was then performed using a TopCount Scintillation detector, counting each well for 2 min. Data was graphed and analyzed using GraphPad PrismS, using non-linear regression to determine KD and K1 values.
Binding experiments were performed at 4° C. for 16 h. Unbound sterol was removed using dextran-coated charcoal, and protein-bound sterol left in the supernatant was quantified by scintillation counting. Ki-values were determined as mean±s.d. from at least three independent experiments.

[1] = tested on: OSBP1 localization in HCT-116 cells; test: OSBP1 localization by immunofluorescence microscopy, HCT-116; format: cell-based, human; details: 4 h treatment
Method: Immunofluorescence microscopy. HCT-116 or A549 (adenocarcinomic human alveolar basal epithelial) cells were plated on coverslips in 6-well plates. After 72 h, the culture media was removed and replaced with media containing either compound or vehicle control. At the indicated time-points, the cells were fixed for 10 min using 3.7% formaldehyde in PBS. The coverslips were washed with PBS and permeabilized for 5 min with 0.5% Triton X-100 in PBS. Following PBS washing, the coverslips were blocked for 30 min using Image-iT™ FX (Invitrogen), washed with PBS, and then blocked for 30 min at room temperature (RT) with 1% BSA in PBS (BSA/PBS). The coverslips were then incubated overnight at 4° C. with a primary antibody solution in BSA/PBS. The coverslips were washed with BSA/PBS and incubated for 60 min at RT with Alexa Fluor®-conjugated secondary antibodies (Invitrogen) in BSA/PBS, with the final 30 min including incubation with Hoescht 33258. The coverslips were then washed sequentially with BSA/PBS, PBS, and water and finally mounted on microscope slides using Aqua Poly/Mount (Polysciences Inc.). Imaging data was acquired using Zeiss LSM 510 META scanning confocal microscope.
Although the function of OSBP1 is not yet fully elucidated, several cellular activities have been observed. For instance, OSBP1 translocates from cytoplasmic sites to the trans-Golgi network (TGN) upon addition of 25-OHC to cells. HCT-116 cells were treated with ORPphilins for short time periods (4 h) and the effects on OSBP1 localization monitored using immunofluorescence microscopy.
OSBP1 (green) and trans-Golgi protein P230 (red) were visualized in HCT-116 cells using indirect immunofluorescence microscopy. Cells were treated with compound for 4 h, fixed with 3.7% formaldehyde/PBS, washed, and permeabilized using 0.5% Triton X-100 in PBS. Proteins were labelled using specific primary antibodies against OSBP1 and P230 overnight at 4° C. After washing, cells were treated with Alexa Fluor 488 and Alexa Fluor 546 secondary antibodies for 1 h at RT.

C[C@H](CCCC(C)(C)O)[C@H]1CC[C@H]2[C@@H]3CC=C4C[C@@H](O)CC[C@]4(C)[C@H]3CC[C@]12C [Compound 25-OHC, 25-hydroxycholesterol]
cytotoxicity (HCT-116 cells; concentrations up to 10 μM, cell line not given at the place): not cytotoxic
Kd (ORP4L-myc-his; read-out: Kd of [3H]-25-hydroxycholesterol, ORP4L, direct binding): 54 ± 23 nM

COc1ccc(C(=O)O[C@H]2[C@H](O[C@@H]3[C@@H](OC(C)=O)[C@H](O[C@H]4C[C@H]5[C@@H]6CC=C7C[C@@H](O)CC[C@]7(C)[C@H]6CC[C@]5(C)[C@@]4(O)[C@H](C)C(=O)CCC(C)C)OC[C@@H]3O)OC[C@@H](O)[C@@H]2O)cc1 [OSW-1]
effect of 25-OHC co-administration on the antiproliferative activity (HCT-116 cells): nearly complete desensitization
OSBP1 localization [1]: caused OSBP1 to localize to a perinuclear position that did not co-localize with p230
Ki (ORP4L-myc-his): 54 ± 11 nM

C[C@@H]1[C@]2(O[C@H]3C=C4[C@@H]5CC[C@H]6Cc7nc8c(nc7C[C@]6(C)[C@H]5C[C@@H](O)[C@]4(C)[C@]31O)C[C@@H]1CC[C@H]3C4=CC[C@@H]5[C@H](C)[C@@]6(OC[C@]45C(=O)C[C@@H]3[C@@]1(C)C8)OC(C)(C)C[C@H]6O)O[C@](C)(CO)C[C@H]2O [cephalostatin 1, Cephalostatin 1]
effect of 25-OHC co-administration on the antiproliferative activity (HCT-116 cells): nearly complete desensitization
OSBP1 localization [1]: OSBP1 occupying a perinuclear position with little co-localization of the dispersed p230 marker
OSBP1 localization ([1]; listed as 1): partially localize to the plasma membrane
Ki (ORP4L-myc-his): 78 ± 15 nM

schweinfurthin A
OSBP1 localization [1]: caused OSBP1 to accumulate at perinuclear positions with a large degree of co-localization with the trans-Golgi marker p230
fold lower affinity for ORP4L than for OSBP1 (ORP4L-myc-his): approximately 40 fold
fold lower affinity for ORP4L than for OSBP1 (ORP4L-myc-his; listed as 4a): ~40 fold
Ki (ORP4L-myc-his): 2600 ± 570 nM
